In paper PMC3764026, “Adaptive Evolution of Escherichia coli to an α-Peptide/β-Peptoid Peptidomimetic Induces Stable Resistance” (PLoS ONE, 2013):
Converted amounts (≈) assume the structure as drawn. Read-outs that look alike come from different tables or passages of the source.

Tests used:
[1] = tested on: Escherichia coli ATCC 25922; type: cell-based; settings: wild-type E. coli ATCC 25922; MHB pH 7.4, 5×10^5 CFU/mL, 37°C, 18–20 h
Protocol: All experiments were performed with Escherichia coli ATCC 25922. Stock cultures of the wild-type strain and lineage isolates were stored at –80°C in 4% (w/v) glycerol, 0.5% (w/v) glucose, 2% (w/v) skimmed milk powder and 3% (w/v) tryptone soy powder. Lineage populations were frozen at –80°C in 50% (w/v) glycerol. All experiments were performed at 37°C. Experiments were carried out in cation-adjusted Mueller Hinton II broth (MHB) (Becton Dickinson 212322) adjusted to pH 7.4 or in 1% (w/v) peptone (Becton Dickinson 211677) for MIC determination of natural AMPs. Brain Heart Infusion (BHI) (CM1135) with agar (VWR 20768.292) 1.5% as gelling agent was used throughout for colony plating.
MIC was determined by using the micro-dilution method according to guidelines of the Clinical and Laboratory Standards Institute. Peptidomimetic 1 and erythromycin 1∶2 serial dilutions were prepared from 1024 µg/mL stock solutions to give a final range of 512-0.5 µg/mL in the wells. Ampicillin 1∶2 serial dilutions were prepared from a 256 µg/mL stock solution to give a final range of 128-0.13 µg/mL in the wells. Polymyxin B and gentamicin 1∶2 serial dilutions were prepared from a 64 µg/mL stock solution to give a final range of 32-0.03 µg/mL in the wells. Also, 1∶2 serial dilutions of the AMPs KR-12, IsCTp, melittin and PEP-1-K were prepared from 64 µg/mL stock solutions to give a final range of 32-0.03 µg/mL in the wells; however this was performed in 1% peptone instead of in MHB since activity was drastically diminished in the latter (not shown).
The population lineages were tested for their susceptibility towards peptidomimetic 1, polymyxin B, gentamicin and ampicillin. Single-culture isolates selected from these populations were additionally tested against peptidomimetic 1, polymyxin B, erythromycin and the five reference AMPs. To estimate the level of cross-resistance to closely related peptidomimetics, MIC determinations were performed for peptidomimetics 2 and 3 (Figure 1) towards selected isolates. […]

[2] = tested on: isolates from peptidomimetic 1-exposed E. coli ATCC 25922 lineages; settings: two biological replicates
Protocol: Continuous selection of resistance was performed for peptidomimetic 1 (Figure 1) and for the clinically relevant natural antimicrobial peptide, polymyxin B. A bacterial suspension of a single colony of E. coli ATCC 25922 was re-inoculated (10 µl) five times in unsupplemented MHB (990 µl). It was then re-inoculated in MHB supplemented with peptidomimetic 1 (ten lineages) or polymyxin B (ten lineages), and after ten re-inoculations at constant peptidomimetic or polymyxin B concentration, the concentrations were doubled. […] Four lineages grown in MHB with MilliQ water were included as control. Re-inoculations were performed twice a day, but were reduced to once a day when growth was slower as assessed by turbidity of the cultures. The total number of passages (supplemented with peptidomimetic/AMP) was 77 times equivalent to approx. 500 generations. For each increase in concentration the lineages were preserved as freezing stocks. Ten colony isolates were randomly selected from each lineage population at 32×MIC and preserved as freezing stocks.
MIC was determined by using the micro-dilution method according to guidelines of the Clinical and Laboratory Standards Institute. Peptidomimetic 1 and erythromycin 1∶2 serial dilutions were prepared from 1024 µg/mL stock solutions to give a final range of 512-0.5 µg/mL in the wells. Ampicillin 1∶2 serial dilutions were prepared from a 256 µg/mL stock solution to give a final range of 128-0.13 µg/mL in the wells. Polymyxin B and gentamicin 1∶2 serial dilutions were prepared from a 64 µg/mL stock solution to give a final range of 32-0.03 µg/mL in the wells.
The population lineages were tested for their susceptibility towards peptidomimetic 1, polymyxin B, gentamicin and ampicillin. Single-culture isolates selected from these populations were additionally tested against peptidomimetic 1, polymyxin B, erythromycin and the five reference AMPs. To estimate the level of cross-resistance to closely related peptidomimetics, MIC determinations were performed for peptidomimetics 2 and 3 (Figure 1) towards selected isolates. The bacterial suspensions were grown overnight in MHB at 37°C for determination of the population MIC, or individual isolates were grown overnight on non-selective BHI agar at 37°C. […] In all experiments, bacterial cells were suspended in 0.9% saline to give a turbidity of 0.13 at OD546 (approximately 1×10^8 CFU/mL) and diluted in MHB pH 7.4 to a final concentration of 5×10^5 CFU/mL in each well. Polypropylene plates (Nunc 442587) were used to minimize peptide binding, and the incubation time was 18–20 hours at 37°C. […] MIC was found in a minimum of two technical (population MIC) or biological (isolate MIC) replicates as the lowest concentration of the AMP or antibiotic where no visible growth was observed.

In the case of `CC(=O)N[C@@H](CCCCN)C(=O)N(CCC(=O)N[C@@H](CCCCN)C(=O)N(CCC(=O)N[C@@H](CCCCN)C(=O)N(CCC(=O)N[C@@H](CCCCN)C(=O)N(CCC(=O)N[C@@H](CCCCN)C(=O)N(CCC(=O)N[C@@H](CCCCN)C(=O)N(CCC(=O)N[C@@H](CCCCN)C(=O)N(CCC(=O)N[C@@H](CCCCN)C(=O)N(CCC(N)=O)[C@@H](C)c1ccccc1)[C@@H](C)c1ccccc1)[C@@H](C)c1ccccc1)[C@@H](C)c1ccccc1)[C@@H](C)c1ccccc1)[C@@H](C)c1ccccc1)[C@@H](C)c1ccccc1)[C@@H](C)c1ccccc1` [peptidomimetic 2], the “wt MIC” value [1] is reported as 64 mg/L, the MIC ([2]; isolates 2–4 and 2–6 (shared values), mean when results varied) is reported as 512 mg/L (≈ 206 µM) and the MIC ([2]; isolates 2–7, 2–9 and 2–10 (shared values), mean when results varied) is reported as 512 mg/L (≈ 206 µM). The MIC ([2]; six of the ten isolates from lineage no. 5 (data point shared with wild type)) was 64 mg/L (≈ 25.7 µM).
